Measured values published in patent US20210038732A1, “ANTICANCER MICRORNA AND LIPID FORMULATIONS THEREOF” (INTERNA TECHNOLOGIES B.V., priority 2018, published 2021).

Assays:
A2058 melanoma cells = assay: Malachite Green Phosphate Assay (free phosphate generation); format: cell-based, human; conditions: miRNA-193a-3p at 10 nM, vs untreated, mock, scrambled
Method: 2000 A2058 melanoma cells were seeded per well in a 96 well plate. 24h after seeding, cells were transfected with different concentrations of miRNA-193a-3p, scrambled control, siNT5E and siPool as control. Malachite Green Phosphate Assay (Sigma Aldrich) was used to measure the liberation of phosphate from nucleoside triphosphates ATP following inhibition of CD39 (ENTPD1) and CD73 (NT5E) as target genes of miRNA-193a-3p 24h and 48h post transfection. The rapid colour formation from the reaction can be conveniently measured on a plate reader (600-660 nm).

4T1 mouse tumor cells [1] = assay: 4T1 re-challenge of previously treated mice, with or without T-cell depletion (Example 4.11); format: in vivo
Description: In all cases, monoclonal antibodies were delivered to mice by intraperitoneal injection in 200p1 phosphate-buffered saline. For depletion and neutralization experiments, CD4 (clone GK1.5) and CD8 (clone 2.43) antibodies were used simultaneously. Depletion or neutralization was commenced a week before tumor cell inoculation. For CD4+ and CD8+ T-cell depletion, […] of the indicated antibody was delivered on a QOD×3 schedule in the first week and then a Q3D schedule for 3 more weeks. Depletion of the desired T-cell population(s) was confirmed on whole blood by flow cytometry (data not shown). 100 μL whole blood was drawn per animal on day 0 and day 14 post tumor cell inoculation (day 0=24h post QOD×3, Day 14: 24h post QOD×3+Q3D for 2 weeks). Then mixed with the antibodies. After vortexing gently, the mix was incubated for 30 minutes in the dark at room temperature (RT). 2 ml of 1× FACS lysing buffer was added to the solution and incubated for 10 min at RT. Then the solution mix was centrifuged for 5 min and the supernatant was removed. Finally, the cells were resuspended in 150p1 of staining buffer and analyzed on a cytometer. All flow cytometry antibodies (anti-CD45-PerCP-cy55 (clone: 30-F11), anti-CD3-FITC (clone: 17A2) anti-CD4-APC (clone: RM4-4), anti-CD8-PE (clone: 53-6.7) were purchased from Biolegend except anti-CD3 from BD Biosciences. (QOD×3: every other day for 3 days, Q3D: every 3 days (Monday-Thursday)).
To investigate the T-cell mediated long-term immunity in miRNA-193a treated mice against 4T1 cancer cells, a new study with similar conditions to example 4.4 was performed. 5 days post-tumor inoculation, mice were randomized into 2 groups and received a similar treatment and dosing regimen as in example 4.4 (see Table 9, groups 1-2 only). After surgical removal of primary tumors when the group mean tumor volume reached 800 mm3, treatments were resumed and continued until day 58. […]

4T1 mouse tumor cells [2] = assay: Re-challenge of surviving treated mice with 4T1 cells (Example 4.4); format: in vivo
Method: (§1) To investigate the long-term immunity in miRNA-193a treated mice against 4T1 cells, on day 75 after inoculation, mice treated with miRNA-193a and 8 naïve (non-tumor bearing) mice were re-challenged by subcutaneous injection of 3×10^5 4T1 mouse tumor cells in PBS (0.1 mL/mouse) into the right front flank. TV and BW were monitored for 3 weeks. Then, to investigate the immunization status of miRNA-193a treated mice against other cell types, on day 101, mice treated with miRNA-193a and 8 naïve (non-tumor bearing) mice were re-challenged by subcutaneous injection of H22 (mouse liver tumor cells) cells in PBS (0.1 mL/mouse) into the right lower flank.

[3] = tested on: H22 (mouse liver tumor cells); assay: Re-challenge of surviving treated mice with H22 cells (Example 4.4); format: in vivo
Method: as §1

A549, H460 = assay: Caspase 3/7 apoptosis assay; format: cell-based, human; conditions: 10 nM, normalized to mock
Method: (§2) Depending on cancer cell type 3000-6000 cells were seeded in a 96 well plate. After cells attached, they were transfected with different concentrations of miRNA-193a and apoptosis induction was measured at different time points. This assay was performed using Promega kit. 100 uL of caspase reagent was added to 100 uL of media in each well in 96-well plate and incubated for 2 hours in the dark at room temperature. The luminescent signal was read on a luminescent plate reader.
(§3) Different biological effects of miRNA-193a-3p have been tested in various cancer cell lines (see Table 13). For this, various cells were treated with miRNA-193a at different concentrations (1, 3, 10 nM). For all experiments controls (untreated, mock and scrambled) were measured. All assays were performed at 24h, 48h and 72h time points. Data shown in Table 13 are the results for miRNA-193a at 10 nM concentration at indicated time points. All the results have been quantified and normalized to the mock control.
(§4) miRNA-193a treatment in various cancer cell lines decreased cell viability over time as measured by either an MTS assay or by cell count. It enhanced apoptosis induction over time as measured by a caspase 3/7 apoptosis assay. […] It is of note that due to intrinsic characteristics and gene mutation status of each cell line, performing one method to detect apoptosis is not always ideal for all cell lines.

A2058 = assay: Caspase 3/7 apoptosis assay; format: cell-based, human; conditions: 10 nM, normalized to mock
Method: as §2, §3, §4

Huh7 = assay: Caspase 3/7 apoptosis assay; format: cell-based, human; conditions: 10 nM, normalized to mock
Method: as §2, §3, §4

HeP3B, SNU449 = assay: Caspase 3/7 apoptosis assay; format: cell-based, human; conditions: 10 nM, normalized to mock
Method: as §2, §3, §4

miRNA-193a: duplex of the miRNA-193a-3p of SEQ ID NO: 218 (mimic, sense) with antisense strand SEQ ID NO: 219; naked in vitro, formulated in vivo (sense UGGGACUUUGUAGGCCAGUUTT; antisense AACUGGCCUACAAAGUCCCAGU; chemistry not given here; listed as Homo sapiens)
Free phosphate generation (A2058 melanoma cells): reduced the level of free phosphate production | 4T1 tumor growth after second re-challenge (4T1 mouse tumor cells [1]; previously treated mice depleted for T cells (anti-CD4 + anti-CD8)): resulted in 4T1 tumor growth | 4T1 tumor growth after second re-challenge (4T1 mouse tumor cells [1]; previously treated mice not depleted for T cells): did not show a palpable 4T1 tumor | Tumor re-growth after 4T1 re-challenge (4T1 mouse tumor cells [1]; re-challenge day 76, followed up to 3 weeks, vs naïve mice): did not develop any palpable tumor | Treated mice that showed tumor take when re-challenged with 4T1 cells (4T1 mouse tumor cells [2]; re-challenge day 75): 3 mice | Tumor take/growth after re-challenge with 4T1 cells (4T1 mouse tumor cells [2]; re-challenge day 75, 14 days post end of treatment, vs naïve mice): Pronounced prevention of tumor take/growth | Tumor take after re-challenge with H22 cells ([3]; re-challenge day 101, 38 days post end of treatment): 100% | H22 tumor growth after re-challenge ([3]; re-challenge day 101, vs naïve mice): rapid inhibition of H22 tumor growth | Apoptosis (48/72 h) (A549, H460): ↑↑ (Induction > 2x) | Apoptosis (48/72 h) (A2058): ↑↑ (Induction > 2x) | Apoptosis (48/72 h) (Huh7): ↑ (Induction < 2x) | Apoptosis (48/72 h) (HeP3B, SNU449): ↑ (Induction < 2x)
